Results reported in patent publication US9427415B2, “Methods and compositions for modifying sensorial perception” (The Procter & Gamble Company, priority 2014, dated 2016).
Like-named read-outs stand apart in the source and are kept apart here.

Assays:
human TRPV1 = molecular target: T1, human TRPV1 (Homo sapiens, UniProt Q8NER1, M315I/T336M); test: Intracellular calcium (Fluo-4, FLIPR) activation of TRPV1 cells by GRAS compounds; assay type: cell-based; conditions: for activation at 1000 µM / activation at 100 µM: read-out: V1 activation, % of agonist value; for TRPV1 activation selectivity, in words: statement in description, see Table 1(i);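 as to all read-outs here: TRPV1-expressing cells, FLIPR fluorescence at 488/514 nm with baseline subtracted, sampled every 2 s for 10 min after adding compound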
T1 construct: expressed in transfected cells; pcDNA3 control cells
T1 sequence (Q8NER1 whole entry M315I/T336M): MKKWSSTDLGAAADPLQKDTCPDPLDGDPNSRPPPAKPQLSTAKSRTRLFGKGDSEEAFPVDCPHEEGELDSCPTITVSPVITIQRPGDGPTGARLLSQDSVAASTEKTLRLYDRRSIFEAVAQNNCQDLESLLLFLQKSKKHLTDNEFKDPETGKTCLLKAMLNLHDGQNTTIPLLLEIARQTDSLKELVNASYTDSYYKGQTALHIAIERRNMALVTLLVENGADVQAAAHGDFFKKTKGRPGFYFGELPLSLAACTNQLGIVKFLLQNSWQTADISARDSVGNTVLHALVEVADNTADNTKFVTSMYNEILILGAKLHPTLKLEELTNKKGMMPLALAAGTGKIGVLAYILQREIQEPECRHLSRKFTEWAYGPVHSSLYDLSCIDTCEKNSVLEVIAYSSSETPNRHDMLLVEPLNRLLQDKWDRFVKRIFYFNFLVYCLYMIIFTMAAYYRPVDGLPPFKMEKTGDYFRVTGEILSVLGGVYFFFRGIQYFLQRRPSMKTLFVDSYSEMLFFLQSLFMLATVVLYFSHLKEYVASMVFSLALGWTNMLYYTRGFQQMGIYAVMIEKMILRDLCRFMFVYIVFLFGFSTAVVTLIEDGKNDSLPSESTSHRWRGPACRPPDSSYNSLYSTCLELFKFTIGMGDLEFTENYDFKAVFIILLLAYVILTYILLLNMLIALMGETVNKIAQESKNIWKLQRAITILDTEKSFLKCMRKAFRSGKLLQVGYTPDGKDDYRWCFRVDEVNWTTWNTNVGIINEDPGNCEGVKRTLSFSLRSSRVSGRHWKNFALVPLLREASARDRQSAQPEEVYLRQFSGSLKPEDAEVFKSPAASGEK

human TRPA1 = molecular target: T2, human TRPA1 (Homo sapiens, UniProt O75762, K186N/R3C/R58T); test: Intracellular calcium (Fluo-4, FLIPR) activation of TRPA1 cells by GRAS compounds; assay type: cell-based; conditions: for activation at 1000 µM / activation at 100 µM: read-out: A1 activation, % of agonist value;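 as to all read-outs here: TRPA1-expressing cells, fluorescence read on a FLIPR Tetra (ex 488 nm, em 514 nm) every 2 s for 10 min after compound addition, baseline subtracted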
T2 construct: expressed in transfected cells; pcDNA3 control cells
T2 sequence (O75762 whole entry R3C/R58T/K186N): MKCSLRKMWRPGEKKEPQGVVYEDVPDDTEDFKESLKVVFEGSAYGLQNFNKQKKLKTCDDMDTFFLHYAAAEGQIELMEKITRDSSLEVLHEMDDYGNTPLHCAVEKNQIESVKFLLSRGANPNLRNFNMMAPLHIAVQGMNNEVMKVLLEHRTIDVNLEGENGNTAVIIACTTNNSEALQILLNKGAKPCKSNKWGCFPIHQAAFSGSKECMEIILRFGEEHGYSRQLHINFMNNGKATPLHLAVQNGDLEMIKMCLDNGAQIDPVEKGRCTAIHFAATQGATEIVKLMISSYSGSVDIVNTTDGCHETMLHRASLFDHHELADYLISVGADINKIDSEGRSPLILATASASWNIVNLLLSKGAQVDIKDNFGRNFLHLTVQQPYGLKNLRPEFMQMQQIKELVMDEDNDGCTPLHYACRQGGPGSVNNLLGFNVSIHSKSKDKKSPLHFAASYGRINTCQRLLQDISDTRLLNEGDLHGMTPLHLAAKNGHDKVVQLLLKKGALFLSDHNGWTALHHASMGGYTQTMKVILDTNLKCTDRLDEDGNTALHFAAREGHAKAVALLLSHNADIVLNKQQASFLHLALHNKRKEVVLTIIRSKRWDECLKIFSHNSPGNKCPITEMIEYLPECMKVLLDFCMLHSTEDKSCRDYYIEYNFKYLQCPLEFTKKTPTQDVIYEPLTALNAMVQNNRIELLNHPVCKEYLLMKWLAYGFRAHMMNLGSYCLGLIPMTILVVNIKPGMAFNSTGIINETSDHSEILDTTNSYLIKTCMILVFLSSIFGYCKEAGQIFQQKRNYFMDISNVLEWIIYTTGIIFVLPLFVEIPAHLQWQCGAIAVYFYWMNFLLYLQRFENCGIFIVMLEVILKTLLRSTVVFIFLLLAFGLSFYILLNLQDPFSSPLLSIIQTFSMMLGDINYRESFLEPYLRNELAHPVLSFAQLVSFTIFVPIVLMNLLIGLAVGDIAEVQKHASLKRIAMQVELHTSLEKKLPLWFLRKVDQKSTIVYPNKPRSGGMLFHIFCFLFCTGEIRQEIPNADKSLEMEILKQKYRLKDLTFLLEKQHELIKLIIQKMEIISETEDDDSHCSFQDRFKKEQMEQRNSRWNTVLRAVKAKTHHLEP

TRPA1V1 = test: Intracellular calcium (Fluo-4, FLIPR) activation of TRPA1V1 cells (co-expressing TRPA1 and TRPV1) by GRAS compounds; assay type: cell-based, human;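 also: HEK293 cells co-expressing TRPA1 and TRPV1, fluorescence read at 488/514 nm after baseline subtraction, recorded every 2 s over 10 min, ionomycin 10 µM and buffer as controls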
[1] = Table 1(a), 1 mM, relative to capsaicin 350 nM, average of three plates
[2] = Table 1(a), 1 mM, relative to AITC 30 μM, average of three plates
[3] = Table 1(b), 1 mM, relative to capsaicin 350 nM
[4] = Table 1(b), 1 mM, relative to AITC 30 μM
[5] = Table 1(a), 100 μM (*), relative to capsaicin 350 nM
[6] = Table 1(a), 100 μM (*), relative to AITC 30 μM
[7] = Table 1(e), 100 μM (*), relative to AITC 30 μM
[8] = Table 1(c), 1 mM, relative to AITC 30 μM

SMILES | A1V1 activation, % of agonist value (TRPA1V1; [2]) [%] | activation at 1000 µM (human TRPV1; [3]) [%] | activation at 1000 µM (human TRPA1; [4]) [%] | A1V1 activation, % of agonist value (TRPA1V1; [4]) [%] | activation at 1000 µM (human TRPV1; [1]) [%] | activation at 1000 µM (human TRPA1; [2]) [%] | further results
CC/C=C\CCCCO [5-Octen-1-ol, (Z)] | 69.24 | – | – | – | – | – | V1 activation, % of agonist value (human TRPV1; [1]): 20.50%; A1 activation, % of agonist value (human TRPA1; [2]): 62.30%
CCCCCC(=O)CCCC(=O)O [5-Oxodecanoic acid] | – | 53.4 | 28.6 | 39.34 | – | – | –
OCCCCCc1ccccc1 [5-Phenyl-1-pentanol] | – | 113 | 119 | 52.1 | – | – | –
CCCCCC/C=C/C=O [(E)-2-Nonenal] | – | 89 | 130 | 61.8 | – | – | –
C=CCSSSCC=C [Allyl-trisulfide] | 89.08 | – | – | – | 32.9 | 83.5 | –
CCCCCC(=Cc1ccccc1)CO [Alpha-Amylcinnamyl alcohol] | 77.36 | – | – | – | 21.1 | 96.4 | –
CC1COC(c2ccccc2)O1 (stereo not shown) [Benzaldehyde propylene glycol acetal] | – | – | – | 78.33 | – | – | V1 activation, % of agonist value (human TRPV1; [3]): 34.38%; A1 activation, % of agonist value (human TRPA1; [4]): 48.03%
c1ccc2scnc2c1 [Benzothiazole] | – | – | – | – | – | – | activation at 100 µM (human TRPV1; [5]): 33.4%; activation at 100 µM (human TRPA1; [6]): 51.3%; A1V1 activation, % of agonist value (TRPA1V1; [6]): 74.4%
CC1=C(CC=O)C(C)(C)CCC1 [Beta-Cyclohomocitral] | 66.79 | – | – | – | – | – | V1 activation, % of agonist value (human TRPV1; [1]): 61.74%; A1 activation, % of agonist value (human TRPA1; [2]): 81.44%
CCCCOC(=O)c1ccc(O)cc1 [Butylparaben, Butyl 4-hydroxybenzoate] | 98.1 | – | – | – | 79.1 | 105 | activation at 100 µM (human TRPA1; [7]): 98.7%; A1V1 activation, % of agonist value (TRPA1V1; [7]): 127.3%
Cc1ccc(C(C)C)cc1O [Carvacrol] | – | 84.6 | 115 | 134.1 | – | – | –
CC(C)=CCCC(C)CCO (stereo not shown) [Citronellol] | – | 106 | 102 | 34.4 | – | – | –
COc1cc(/C=C/C(=O)CC(=O)/C=C/c2ccc(O)c(OC)c2)ccc1O [Curcumin] | – | 43.2 | 95.3 | 171.6 | – | – | activation at 100 µM (human TRPA1; [7]): 102%; A1V1 activation, % of agonist value (TRPA1V1; [7]): 150.3%
O=C(O)CC1CCCCC1 [Cyclohexaneacetic acid] | 61.28 | – | – | – | 56.6 | 20.6 | –
CCOC(=O)C(O)Cc1ccccc1 (stereo not shown) [Ethyl 2-hydroxy-3-phenylpropanoate] | 90.76 | – | – | – | 29.2 | 95.6 | –
CCCCCC(O)CC(=O)OCC (stereo not shown) [Ethyl 3-hydroxyoctanoate] | – | 28.1 | 97.3 | 76.90 | – | – | –
CC(C)=CCCC(C)=CCCC(C)=CC=O [Farnesal] | 104.4 | – | – | – | – | – | V1 activation, % of agonist value (human TRPV1; [1]): 41.22%; A1 activation, % of agonist value (human TRPA1; [2]): 97.58%
CCCCCC1CCC(=O)O1 (stereo not shown) [Gamma-Nonalactone] | 69.15 | – | – | – | – | – | V1 activation, % of agonist value (human TRPV1; [1]): 66.34%; A1 activation, % of agonist value (human TRPA1; [2]): 33.32%

SMILES | A1V1 activation, % of agonist value (TRPA1V1; [2]) [%] | activation at 1000 µM (human TRPV1; [3]) [%] | activation at 1000 µM (human TRPA1; [4]) [%] | A1V1 activation, % of agonist value (TRPA1V1; [4]) [%] | activation at 1000 µM (human TRPV1; [1]) [%] | activation at 1000 µM (human TRPA1; [2]) [%] | further results
CC(C)=CCC/C(C)=C/CO [Geraniol] | – | – | 82.5 | – | – | – | activation at 1000 µM (human TRPV1): 42.2%; A1V1 activation, % of agonist value (TRPA1V1): 63.93%
CCCC(=O)OC/C=C(\C)CCC=C(C)C [Geranyl butyrate] | 76.26 | – | – | – | 28.9 | 76.9 | –
CCCCCC1C(=O)CCC1CC(=O)OC (stereo not shown) [Hedione, Methyl dihydrojasmonate] | – | 25.6 | 43.5 | 60.64 | – | – | activation at 1000 µM (human TRPA1; [8]): 54.4%; A1V1 activation, % of agonist value (TRPA1V1; [8]): 59.58%
CC(C=O)Cc1ccc2c(c1)OCO2 (stereo not shown) [Helional] | 71.85 | – | – | – | – | – | V1 activation, % of agonist value (human TRPV1; [1]): 23.38%; A1 activation, % of agonist value (human TRPA1; [2]): 78.00%
CCCCCCC=O [Heptaldehyde] | – | – | – | – | – | – | activation at 100 µM (human TRPV1; Table 1(i), 100 μM (*), relative to capsaicin 350 nM, […]): 65.3%; TRPV1 activation selectivity, in words (human TRPV1): TRPV1 activators which do not modulate TRPA1 or TRPA1V1; activation at 100 µM (human TRPA1; Table 1(i), 100 μM (*), relative to AITC 30 μM, […]): 4.3%; A1V1 activation, % of agonist value (TRPA1V1; Table 1(i), 100 μM (*), relative to AITC 30 μM or capsaicin 350 nM depending on compound, […]): 2.4%
CC(C)CCOC(=O)CCc1ccco1 [Isoamyl 3-(2-furan)propionate] | – | – | – | 106.9 | – | – | V1 activation, % of agonist value (human TRPV1; [3]): 32.66%; A1 activation, % of agonist value (human TRPA1; [4]): 123.3%
S=C=NCc1ccccc1 [Isothiocyanic acid, benzyl ester] | 180.5 | – | – | – | 59.2 | 110 | –
CCCCC/C=C\C/C=C\CCCCCCCC(=O)O [Linoleic acid] | 170.4 | – | – | – | 24.9 | 170 | –
O=C(O)CC(O)C(=O)O (stereo not shown) [Malic acid] | – | – | – | – | – | – | activation at 1000 µM (human TRPV1; Table 1(i), 1 mM, relative to capsaicin 350 nM, […]): 67.5%; TRPV1 activation selectivity, in words (human TRPV1): TRPV1 activators which do not modulate TRPA1 or TRPA1V1; activation at 1000 µM (human TRPA1; Table 1(i), 1 mM, relative to AITC 30 μM, […]): 1.9%; A1V1 activation, % of agonist value (TRPA1V1; Table 1(i), 1 mM, relative to AITC 30 μM or capsaicin 350 nM depending on compound, […]): 2.4%
COC(=O)C1CCCCC1 [Methyl cyclohexanecarboxylate] | – | 69.5 | 45.5 | 85.17 | – | – | –
CC/C=C\C/C=C\C/C=C\CCCCCCCC(=O)OC [Methyl linolenate] | 104 | – | – | – | 31 | 108 | –
CCCCCCCCC(=O)NCc1ccc(O)c(OC)c1 [Nonivamide, N-Vanillylnonanamide] | – | – | – | – | – | – | activation at 100 µM (human TRPV1): 65.5%; activation at 1000 µM (human TRPV1): 91.4%; activation at 100 µM (human TRPA1): 69%; A1V1 activation, % of agonist value (TRPA1V1; Table 1(g), 1 mM, relative to capsaicin 350 nM): 135.6%; A1V1 activation, % of agonist value (TRPA1V1; Table 1(i), 100 μM (*), relative to AITC 30 μM or capsaicin 350 nM depending on compound, values less than 20-25% considered inactive): 1.2%
C=C(C)[C@@H]1CC=C(CO)CC1 [Perillyl alcohol] | 73.28 | – | – | – | 20.4 | 82 | –
O=C(O)C(=O)Cc1ccccc1 [Phenylpyruvic acid] | 74.05 | – | – | – | 32.5 | 68 | –
O=C(CCc1ccc(O)cc1)c1c(O)cc(O)cc1O [Phloretin] | – | – | – | – | – | – | activation at 100 µM (human TRPV1; [5]): 122%; activation at 100 µM (human TRPA1; [6]): 160%; A1V1 activation, % of agonist value (TRPA1V1; [6]): 174.3%
CC1=CC(=O)C(C(C)C)CC1 (stereo not shown) [Piperitone] | – | 53.3 | 90.1 | 109.1 | – | – | –
CC(=O)OCc1ccc2c(c1)OCO2 [Piperonyl acetate] | – | – | – | 78.00 | – | – | activation at 1000 µM (human TRPV1): 20.9%; activation at 1000 µM (human TRPA1): 62.7%
CC(C)C(=O)OCc1ccc2c(c1)OCO2 [Piperonyl isobutyrate] | – | 30 | 61 | 82.33 | – | – | –
